For assay [1], the system named is HCT-116 cells. Put plainly: Test for inhibiting sphere-forming ability of cancer cells. Type of assay: cell-based. The following applies: HCT-116 spheres, non-adherent, serum-free, 4 days, CellTiter-Glo, read-out: IC50 (Sphere IC50 value; concentration for 50% inhibition of cell proliferation). The procedure: (§1) The reliable methods established for measuring the self-renewal ability of cells which is one of the CSC's properties include a method for measuring the sphere-forming ability of cancer cells in non-adherent condition in the absence of serum (Cancer Res 65, 5506-5511 (2005)). HCT-116 cells were available from the American Type Culture Collection (ATCC). HCT-116 cells were cultured at 37° C. and 5% CO2 using the McCoy's 5a medium containing 10% fetal bovine serum (FBS) and 1% penicillin/streptomycin. HCT-116 cells were seeded in a 384 Well Black Clear Bottom Ultra-Low Attachment Microplate (Corning Cat. No. 3827) in an amount of 350-800 cells/well using the DMEM/F12 medium containing 2% B27 supplement (GIBCO), 20 ng/mL epidermal growth factor (EGF) (peprotech), 10 ng/mL basic fibroblast growth factor (bFGF) (peprotech), 5 μg/mL insulin (Sigma), and 1% penicillin/streptomycin. The test compounds were added into each well to adjust the final concentration of DMSO to 0.1%, and the cells were cultured for 4 days. The number of viable cells in each well was then measured with CellTiter-Glo® Luminescent Cell Viability Assay (Promega) to calculate the concentration of each test compound for 50% inhibition of cell proliferation (Sphere IC50 value; μmol/L).
The experiment of Test Example 1 was performed for the compounds of each Example. The concentrations of each test compound for 50% inhibition of cell profeliration (Sphere IC50 value; μmol/L) are shown in the following Table.
In general terms: Cellular ATP, detected with luciferase, serves as a proxy for viable cell number.

For assay [2], the system named is HCT-116 cells. Put plainly: Test for inhibiting sphere-forming ability of cancer cells (in the presence of BSA). Type of assay: cell-based. The following applies: HCT-116 spheres, non-adherent, 5% BSA, 4 days, CellTiter-Glo, read-out: IC50 (Sphere IC50 value; concentration for 50% inhibition of cell proliferation). The procedure: as §1, with “HCT-116” for “The reliable methods established for measuring the self-renewal ability of cells which is one of the CSC's properties include a method for measuring the sphere-forming ability of cancer cells in non-adherent condition in the absence of serum (Cancer Res 65, 5506-5511 (2005)). HCT-116”, “(Sigma), 5% bovine serum albumin (BSA),” for “(Sigma),”
The experiment of Test Example 2 was performed for the compounds of each Example. The concentrations of each test compound for 50% inhibition of cell profeliration (Sphere IC50 value; μmol/L) are shown in the following Table.

As a reminder, the IC50 is the concentration needed to halve the response being measured.

SMILES strings stand for the structures. A value given as a limit tells only on which side of the number the result lay.

For the molecule `O=C(Nc1cn(Cc2ccc(Cl)c(C(F)(F)F)c2)cn1)c1cnc2c(c1)CCNC2` [Example 54, N-{1-[4-chloro-3-(trifluoromethyl)benzyl]-1H-imidazol-4-yl}-5,6,7,8-tetrahydro-1,7-naphthyridine-3-carboxamide], the IC50 in the assay with HCT-116 cells [1] (Homo sapiens, 96 h) was below 0.01 µM; in the assay with HCT-116 cells [2] (Homo sapiens, HCT-116, 96 h), 0.03 µM.

Regarding `Cc1cccc(Cn2cnc(NC(=O)c3cnc4c(c3)CCNC4)c2)c1` [Example 121], the IC50 in the assay with HCT-116 cells [1] came out at 0.08 µM; with HCT-116 cells [2] it was 0.07 µM.

For `O=C(Nc1cn(Cc2cccc(C(F)(F)F)c2)cn1)c1cc2c(s1)CCNC2` [Example 16], the IC50 in the assay on HCT-116 cells [1] (Homo sapiens, 96 h) amounted to 5.85 µM; with HCT-116 cells [2] (Homo sapiens, HCT-116, 96 h) it was 6 µM.

`O=C(Nc1cc2c(cc1F)CNCC2)c1cn(Cc2cc(F)c(F)c(F)c2)cn1` [Example 1, N-(7-fluoro-1,2,3,4-tetrahydroisoquinolin-6-yl)-1-(3,4,5-trifluorobenzyl)-1H-imidazole-4-carboxamide]: the IC50 in the assay with HCT-116 cells [1] (Homo sapiens, 96 h) stood at 0.08 µM; in the assay with HCT-116 cells [2] (Homo sapiens, HCT-116, 96 h), 0.17 µM.

As for `O=C(Nc1cn(Cc2ccccc2C(F)(F)F)cn1)c1cnc2c(c1)CCNC2` [Example 62], the IC50 was 0.71 µM in the assay on HCT-116 cells [1] and 0.59 µM with HCT-116 cells [2].

In the case of `O=C(Nc1cn(CC2CCCCC2)cn1)c1ccc2c(c1)CCNC2` [Example 85], the IC50 was 0.61 µM in the assay with HCT-116 cells [1] and 0.59 µM with HCT-116 cells [2].

On to `COc1cccc(Cn2cnc(NC(=O)c3cnc4c(c3)CCNC4)c2)c1` [Example 58], for which the IC50 amounted to 0.18 µM in the assay with HCT-116 cells [1] and 0.08 µM in the assay with HCT-116 cells [2].

For the molecule `O=C(/C=C/c1ccc2c(c1)CCNC2)Nc1cn(Cc2cc(F)c(F)c(F)c2)cn1` [Example 112], the IC50 with HCT-116 cells [1] (Homo sapiens, 96 h) was found to be 0.71 µM; in the assay on HCT-116 cells [2] (Homo sapiens, HCT-116, 96 h), 6.34 µM.

In the case of `O=C(Nc1cn(Cc2cc(Cl)cc(OC(F)(F)F)c2)cn1)c1ccc2c(c1)CCNC2` [Example 100, N-{1-[3-chloro-5-(trifluoromethoxy)benzyl]-1H-imidazol-4-yl}-1,2,3,4-tetrahydroisoquinoline-6-carboxamide], the IC50 in the assay with HCT-116 cells [1] (Homo sapiens, 96 h) is 0.06 µM; in the assay on HCT-116 cells [2] (Homo sapiens, HCT-116, 96 h), 0.07 µM.

As for `O=C(Nc1cn(Cc2cccc(C(F)(F)F)c2)cn1)c1ccc2c(c1)CCC(O)C2` (stereo not drawn) [Example 111, 6-Hydroxy-N-{1-[3-(trifluoromethyl)benzyl]-1H-imidazol-4-yl}-5,6,7,8-tetrahydronaphthalene-2-carboxamide], the IC50 in the assay with HCT-116 cells [1] (Homo sapiens, 96 h) is 0.69 µM; with HCT-116 cells [2] (Homo sapiens, HCT-116, 96 h), 0.98 µM.

With `O=C(Nc1cn(Cc2ccc(F)c(F)c2)cn1)c1cnc2c(c1)CCNC2` [Example 48, N-[1-(3,4-difluorobenzyl)-1H-imidazol-4-yl]-5,6,7,8-tetrahydro-1,7-naphthyridine-3-carboxamide], the concentration for half-maximal inhibition (IC50) worked out at 0.08 µM with HCT-116 cells [1] (Homo sapiens, 96 h) and 0.06 µM in the assay with HCT-116 cells [2] (Homo sapiens, HCT-116, 96 h).

`O=C(Nc1cn(Cc2cc(Br)cc(Br)c2)cn1)c1ccc2c(c1)CCNC2` [Example 96]: the IC50 with HCT-116 cells [1] (Homo sapiens, 96 h) was 0.06 µM; with HCT-116 cells [2] (Homo sapiens, HCT-116, 96 h) it was 0.2 µM.

As to `O=C(Nc1cn(CC2CCCCC2)cn1)c1cnc2c(c1)CCNC2` [Example 55], the IC50 is 0.08 µM in the assay with HCT-116 cells [1] and 0.05 µM in the assay on HCT-116 cells [2].

As for `O=C(Nc1cn(Cc2ccc(Cl)c(F)c2)cn1)c1ccc2c(c1)CCNC2` [Example 90, N-[1-(4-chloro-3-fluorobenzyl)-1H-imidazol-4-yl]-1,2,3,4-tetrahydroisoquinoline-6-carboxamide], the half-inhibitory concentration (IC50) was 0.07 µM in the assay with HCT-116 cells [1] (Homo sapiens, 96 h) and 0.1 µM in the assay with HCT-116 cells [2] (Homo sapiens, HCT-116, 96 h).

In the case of `O=C(Nc1cn(Cc2cccc(F)c2)cn1)c1ccc2c(c1)CCNC2` [Example 77], the 50% inhibitory concentration (IC50) amounted to 0.62 µM with HCT-116 cells [1] and 0.6 µM with HCT-116 cells [2].

Consider `O=C(Nc1cn(Cc2ccc(F)c(C(F)(F)F)c2)cn1)c1cnc2c(c1)CCNC2` [Example 53, N-{1-[4-fluoro-3-(trifluoromethyl)benzyl]-1H-imidazol-4-yl}-5,6,7,8-tetrahydro-1,7-naphthyridine-3-carboxamide], for which the IC50 with HCT-116 cells [1] (Homo sapiens, 96 h) worked out at 0.06 µM; with HCT-116 cells [2] (Homo sapiens, HCT-116, 96 h), 0.06 µM.

As for `O=C(Nc1cn(Cc2ccc3ccccc3c2)cn1)c1ccc2c(c1)CCNC2` [Example 103], the IC50 with HCT-116 cells [1] (Homo sapiens, 96 h) stood at 4.18 µM; in the assay with HCT-116 cells [2] (Homo sapiens, HCT-116, 96 h) it was 6.1 µM.

Regarding `O=C(Nc1cn(Cc2ccc(Cl)c(C(F)(F)F)c2)cn1)c1ccc2c(c1)CCNC2` [Example 93, N-{1-[4-chloro-3-(trifluoromethyl)benzyl]-1H-imidazol-4-yl}-1,2,3,4-tetrahydroisoquinoline-6-carboxamide], the IC50 in the assay with HCT-116 cells [1] (Homo sapiens, 96 h) is below 0.01 µM; with HCT-116 cells [2] (Homo sapiens, HCT-116, 96 h) it was 0.07 µM.

Turning to `O=C(Nc1cn(Cc2ccc(C(F)(F)F)cc2)cn1)c1cnc2c(c1)CCNC2` [Example 64, N-{1-[4-(trifluoromethyl)benzyl]-1H-imidazol-4-yl}-5,6,7,8-tetrahydro-1,7-naphthyridine-3-carboxamide], the IC50 worked out at 0.09 µM with HCT-116 cells [1] (Homo sapiens, 96 h) and 0.17 µM in the assay on HCT-116 cells [2] (Homo sapiens, HCT-116, 96 h).

In the case of `O=C(Nc1cn(Cc2ccc(Cl)cc2)cn1)c1cnc2c(c1)CCNC2` [Example 65, N-[1-(4-chlorobenzyl)-1H-imidazol-4-yl]-5,6,7,8-tetrahydro-1,7-naphthyridine-3-carboxamide], the IC50 in the assay with HCT-116 cells [1] (Homo sapiens, 96 h) was 0.08 µM; in the assay on HCT-116 cells [2] (Homo sapiens, HCT-116, 96 h), 0.38 µM.

`O=C(Nc1cn(Cc2ccc(F)c(C(F)(F)F)c2)cn1)c1ccc2c(c1)CCNC2` [Example 92, N-{1-[4-fluoro-3-(trifluoromethyl)benzyl]-1H-imidazol-4-yl}-1,2,3,4-tetrahydroisoquinoline-6-carboxamide]: the IC50 with HCT-116 cells [1] (Homo sapiens, 96 h) was 0.07 µM; in the assay with HCT-116 cells [2] (Homo sapiens, HCT-116, 96 h), 0.09 µM.

On to `COc1cc(Cn2cnc(NC(=O)c3ccc4c(c3)CCNC4)c2)cc(C(F)(F)F)c1` [Example 98], for which the IC50 with HCT-116 cells [1] (Homo sapiens, 96 h) is 0.5 µM; with HCT-116 cells [2] (Homo sapiens, HCT-116, 96 h), 0.51 µM.

Regarding `Cc1ccc(Cn2cnc(NC(=O)c3ccc4c(c3)CCNC4)c2)cc1` [Example 81], the half-inhibitory concentration (IC50) with HCT-116 cells [1] amounted to 0.95 µM; in the assay on HCT-116 cells [2], 6.22 µM.

Turning to `O=C(Nc1cn(Cc2ccc(F)cc2)cn1)c1ccc2c(c1)CCNC2` [Example 79], the IC50 in the assay with HCT-116 cells [1] is 0.55 µM; with HCT-116 cells [2] it was 0.49 µM.

For `O=C(Nc1cn(Cc2ccccc2F)cn1)c1ccc2c(c1)CCNC2` [Example 72], the IC50 turned out to be 3.45 µM in the assay with HCT-116 cells [1] and 5.46 µM in the assay on HCT-116 cells [2].

In the case of `O=C(/C=C/c1ccc2c(c1)OC(F)(F)O2)Nc1cn(Cc2cccc(Cl)c2)cn1` [Example 40], the IC50 in the assay with HCT-116 cells [1] (Homo sapiens, 96 h) was 0.08 µM; in the assay on HCT-116 cells [2] (Homo sapiens, HCT-116, 96 h), 0.07 µM.

In the case of `O=C(Nc1cn(CCC2CCCCC2)cn1)c1ccc2c(c1)CCNC2` [Example 86], the results for the IC50 in the assay with HCT-116 cells [1] and with HCT-116 cells [2] were 0.47 µM and 0.56 µM, respectively.

For `Cc1ccccc1Cn1cnc(NC(=O)c2cnc3c(c2)CCNC3)c1` [Example 60], the IC50 stood at 0.25 µM in the assay on HCT-116 cells [1] and 0.1 µM with HCT-116 cells [2].

Take `O=C(Nc1cn(Cc2ccccc2F)cn1)c1cnc2c(c1)CCNC2` [Example 46]: the IC50 was 0.75 µM in the assay with HCT-116 cells [1] and 0.44 µM with HCT-116 cells [2].

As to `O=C(Nc1cn(Cc2ccc(OC(F)(F)F)cc2)cn1)c1ccc2c(c1)CCNC2` [Example 75], the IC50 with HCT-116 cells [1] amounted to 0.4 µM; with HCT-116 cells [2] it was 0.61 µM.

For the molecule `O=C(Nc1cn(Cc2cc(F)c(F)c(F)c2)cn1)c1cc2c(cc1F)CNCC2` [Example 7], the half-inhibitory concentration (IC50) with HCT-116 cells [1] (Homo sapiens, 96 h) is 0.39 µM; in the assay with HCT-116 cells [2] (Homo sapiens, HCT-116, 96 h) it was 0.61 µM.

`Cc1ccc(Cn2cnc(NC(=O)c3cnc4c(c3)CCNC4)c2)cc1` [Example 68]: the IC50 in the assay with HCT-116 cells [1] was 0.56 µM; in the assay on HCT-116 cells [2], 0.65 µM.

In the case of `O=C1CCc2cc(C(=O)Nc3cn(Cc4cc(F)c(F)c(F)c4)cn3)ccc2N1` [Example 37], the IC50 with HCT-116 cells [1] (Homo sapiens, 96 h) was determined as 0.09 µM; in the assay on HCT-116 cells [2] (Homo sapiens, HCT-116, 96 h), 0.59 µM.

With `O=C(Nc1cn(Cc2ccc(F)c(Cl)c2)cn1)c1ccc2c(c1)CCNC2` [Example 95, N-[1-(3-chloro-4-fluorobenzyl)-1H-imidazol-4-yl]-1,2,3,4-tetrahydroisoquinoline-6-carboxamide], the IC50 turned out to be 0.08 µM in the assay on HCT-116 cells [1] (Homo sapiens, 96 h) and 0.09 µM in the assay on HCT-116 cells [2] (Homo sapiens, HCT-116, 96 h).

For `O=C(Nc1cn(Cc2cccc(C(F)(F)F)c2)cn1)c1ccc2c(c1)CCCN2` [Example 27], the IC50 in the assay with HCT-116 cells [1] (Homo sapiens, 96 h) worked out at 0.69 µM; in the assay with HCT-116 cells [2] (Homo sapiens, HCT-116, 96 h), 6.01 µM.

For the molecule `O=C(Nc1cn(Cc2cccc(F)c2)cn1)c1cnc2c(c1)CCNC2` [Example 120], the half-maximal inhibitory concentration (IC50) stood at 0.08 µM with HCT-116 cells [1] and 0.07 µM with HCT-116 cells [2].
